In ChEMBL document CHEMBL4130531 (ACS Med Chem Lett, 2017):
Converted amounts (≈) assume the structure as drawn. Each block holds one compound with its values, some of them ahead of it.

What was measured:
in vivo [1] = settings: Sprague-Dawley, rat, brain and plasma, iv, 5 mg/kg
in vivo [2] = settings: C57BL/6, mouse, brain and plasma, po, 30 mg/kg
[3] = AUC in Sprague-Dawley rat plasma at 5 mg/kg, iv by HPLC-MS analysis; format: ADME, organism-based
Mus musculus [4] = assay: Unbound AUC (0 to 48 hrs) in HSD athymic nude mouse xenografted with human HCHZ2H1 cells at 200 mg/kg, po administered as single dose by LC-MS/MS analysis; format: ADME, organism-based; settings: in vivo
[5] = Ratio of drug level in brain to plasma in Sprague-Dawley rat at 5 mg/kg, iv by HPLC-MS analysis; format: ADME, organism-based; settings: brain and plasma, read-out: BPR
[6] = AUC (0 to 8 hrs) in nude mouse xenografted with human HMEX2838 cells at 30 mg/kg, po administered via gavage as single dose by LC-MS/MS analysis; format: ADME, organism-based; parameters: dose 30 mg/kg, time < 8 hr, route oral; settings: in vivo
[7] = AUC (0 to 48 hrs) in HSD athymic nude mouse xenografted with human HCHZ2H1 cells at 200 mg/kg, po administered as single dose by LC-MS/MS analysis; format: ADME, organism-based; parameters: dose 200 mg/kg, time < 48 hr, route oral; settings: in vivo
[8] = Solubility of the compound at pH 6.8; format: physicochemical; settings: buffer
[9] = Lipophilicity, log D of the compound at pH 7.4; format: physicochemical; settings: buffer
[10] = AUC in Sprague-Dawley rat brain at 5 mg/kg, iv by HPLC-MS analysis; format: ADME, organism-based
[11] = Cmax in HSD athymic nude mouse xenografted with human HCHZ2H1 cells at 200 mg/kg, po administered as single dose by LC-MS/MS analysis; format: ADME, organism-based; parameters: dose 200 mg/kg, route oral; settings: in vivo
[12] = AUC in Sprague-Dawley rat at 10 mg/kg, po by HLPC-MS analysis; format: ADME, organism-based; settings: in vivo
[13] = AUC (0 to 12 hrs) in nude mouse xenografted with human HMEX2838 cells at 100 mg/kg, po bid administered via gavage by LC-MS/MS analysis; format: ADME, organism-based; parameters: time < 12 hr, dose 100 mg/kg, route oral; settings: in vivo
Mus musculus [14] = assay: Unbound Cmax in HSD athymic nude mouse xenografted with human HCHZ2H1 cells at 200 mg/kg, po administered as single dose by LC-MS/MS analysis; format: ADME, organism-based; settings: in vivo
[15] = AUC (0 to 12 hrs) in nude mouse xenografted with human HMEX2838 cells at 30 mg/kg, po bid administered via gavage by LC-MS/MS analysis; format: ADME, organism-based; parameters: time < 12 hr, dose 30 mg/kg, route oral; settings: in vivo
[16] = Ratio of drug level in brain to plasma in C57BL/6 mouse at 30 mg/kg, po measured at 1 hr by HPLC-MS analysis; format: ADME, organism-based; settings: brain and plasma, read-out: BPR
[17] = AUC (0 to 24 hrs) in nude mouse xenografted with human HMEX2838 cells at 300 mg/kg, po administered via gavage as single dose by LC-MS/MS analysis; format: ADME, organism-based; parameters: dose 300 mg/kg, time < 24 hr, route oral; settings: in vivo
[18] = Fraction absorbed of compound by PAMPA; format: ADME; settings: read-out: Fabs
Mus musculus [19] = assay: Time at which unbound plasma concentration stays above cellular IDH1 R132H mutant inhibitory IC50 in HSD athymic nude mouse xenografted with human HCHZ2H1 cells; format: ADME, organism-based; settings: in vivo
[20] = AUC (0 to 12 hrs) in nude mouse xenografted with human HMEX2838 cells at 300 mg/kg, po bid administered via gavage by LC-MS/MS analysis; format: ADME, organism-based; parameters: time < 12 hr, dose 300 mg/kg, route oral; settings: in vivo
[21] = AUC (0 to 8 hrs) in nude mouse xenografted with human HMEX2838 cells at 100 mg/kg, po administered via gavage as single dose by LC-MS/MS analysis; format: ADME, organism-based; parameters: time < 8 hr, dose 100 mg/kg, route oral; settings: in vivo

Compound: Cc1cc([C@H](C)Nc2nccc(N3C(=O)OC[C@@H]3[C@H](C)F)n2)ncc1-c1ccnc(C(F)(F)F)c1
- Kp uu (in vivo [1]): 0.18
- Kp uu at 1 h (in vivo [2]): 0.17
- AUC [3]: 5.5 µM·h
- fAUC (Mus musculus [4]): 17.3 µM·h
- Kp [5]: 0.61
- AUC(0-t) at 8 h [6]: 10.1 µM·h
- AUC(0-t) at 48 h [7]: 149 µM·h
- solubility [8]: 130 µM (≈ 63.8 µg/mL)
- logD [9]: 2.8
- AUC [10]: 3.4 µM·h
- Cmax [11]: 16.2 µM
- AUC [12]: 6.2 µM·h
- AUC at 12 h [13]: 19.2 µM·h
- fCmax (Mus musculus [14]): 1.88 µM
- AUC at 12 h [15]: 5.4 µM·h
- Kp at 1 h [16]: 0.29
- AUC(0-t) at 24 h [17]: 212 µM·h
- Fa [18]: 99.3%
- Time (Mus musculus [19]): > 12 h
- AUC at 12 h [20]: 88.9 µM·h
- AUC(0-t) at 8 h [21]: 71.9 µM·h

Compound: Cc1cc(-c2cnc([C@H](C)Nc3nccc(N4C(=O)OC[C@@H]4C(C)C)n3)nc2)ccc1F
- logD [9]: 3.4
- AUC [12]: 0.2 µM·h

Compound: Cc1cc(-c2cnc([C@H](C)Nc3nccc(N4C(=O)OC[C@@H]4C(C)C)n3)cn2)ccc1F
- solubility [8]: < 5 µM

The next lines start with the values.

- AUC [12]: 1.6 µM·h
Compound: CC(C)[C@H]1COC(=O)N1c1ccnc(N[C@@H](C)c2ccc(-c3ccnc(C(F)(F)F)c3)cn2)n1

- solubility [8]: 430 µM (≈ 180 µg/mL)
Compound: Cc1cc(-c2ccc([C@H](C)Nc3nccc(N4C(=O)OC[C@@H]4C(C)C)n3)nc2)ccn1
